Reference: patent publication US12485132B2, “GPX4 inhibitors and senolytic compounds and uses thereof” (Rubedo Life Sciences, Inc., priority 2023, dated 2025)

These molecules were tested on senescent HEPG2 cells (assay: Senescence assay: viability of senescent HEPG2 cells). Settings: Homo sapiens, 24-72 hours incubation, viability by CellTiter-Glo or XTT, read-out: Absolute IC50 average HEPG2_SEN IC50.
Type: cell-based
Protocol: Cells were maintained in DMEM media (high glucose, 4 mM L-glutamine, no sodium pyruvate) supplemented with 10% fetal bovine serum in a humidified incubator at 37° C. with 5% carbon dioxide. Senescence was induced via treatment with a sublethal concentration of chemotherapy (bleomycin, gemcitabine, doxorubicin, 5-fluorouridine), followed by a rest period without chemotherapy similarly to what is reported by others in the field (e.g., Aoshiba et al., 2003 Eur Respir J 22:436-443). Senescence was qualified by low EdU (5-ethynyl-2′-deoxyuridine) incorporation and high SA-β-Gal (senescence-associated beta-galactosidase) staining compared to proliferating untreated cells. Senescent cells were plated into 96-well plates at a density of 5-15,000 cells/well. The next day, compounds were added in duplicate across ten different concentrations spanning roughly four Log10 units. Cells were incubated with the compounds for 24-72 hours, at which point viability was quantified using CellTiter-Glo (Promega) or XTT (R&D Systems). The viability for treated cells was determined relative to untreated control cells. The log of the compound concentration vs. normalized mean viability was fit to a four parameters Hill function with variable slope. The bottom was constrained to be greater than zero. The X mean value for Y=50 was interpolated to determine the absolute IC50. The results in Table 2 indicate that many of the compounds are active in cells and can induce a dose dependent decrease in the viability of senescent HEPG2 and A549 cells.

Row | SMILES | IC50 [nM]
1 | C#CC(F)(F)[C@]1(O)CC[C@H]2[C@@H]3CCC4=C/C(=N/OCCOCCOCCOC)CCC4=C3[C@@H](c3ccc(C4CC4)cc3)C[C@@]21C [Compound 15, (8S,11R,13S,14S,17S,E)-11-(4-cyclopropylphenyl)-17-(1,1-difluoroprop-2-yn-1-yl)-17-hydroxy-13-methyl-1,2,6,7,8,11,12,13,14,15,16,17-dodecahydro-3H-cyclopenta[a]phenanthren-3-one O-(2-(2-(2-methoxyethoxy)ethoxy)ethyl)oxime] | 10 to 100
2 | C#CC(F)(F)[C@]1(O)CC[C@H]2[C@@H]3CCC4=C/C(=N/O[C@@H]5O[C@@H](C)[C@@H](O)[C@@H](O)[C@@H]5O)CCC4=C3[C@@H](c3ccc(C4CC4)cc3)C[C@@]21C [Compound 20, (8S,11R,13S,14S,17S,E)-11-(4-cyclopropylphenyl)-17-(1,1-difluoroprop-2-yn-1-yl)-17-hydroxy-13-methyl-1,2,6,7,8,11,12,13,14,15,16,17-dodecahydro-3H-cyclopenta[a]phenanthren-3-one O-((2S,3S,4R,5S,6S)-3,4,5-trihydroxy-6-methyltetrahydro-2H-pyran-2-yl) oxime] | 0.1 to 10
3 | C#CC(F)(F)[C@]1(O)CC[C@H]2[C@@H]3CCC4=C/C(=N/NC(=O)O[C@@H]5O[C@H](COC(C)=O)[C@H](OC(C)=O)[C@H](OC(C)=O)[C@H]5OC(C)=O)CCC4=C3[C@H](c3ccc(C4CC4)cc3)C[C@@]21C [Compound 28, (2R,3S,4S,5R,6S)-2-(acetoxymethyl)-6-((2-((8S,11S,13S,14S,17S,E)-11-(4-cyclopropylphenyl)-17-(1,1-difluoroprop-2-yn-1-yl)-17-hydroxy-13-methyl-1,2,6,7,8,11,12,13,14,15,16,17-dodecahydro-3H-cyclopenta[a]phenanthren-3-ylidene)hydrazine-1-carbonyl)oxy)tetrahydro-2H-pyran-3,4,5-triyl triacetate] | 10 to 100
4 | C#CC(F)(F)[C@]1(O)CC[C@H]2[C@@H]3CCC4=C/C(=N/NC(=O)O[C@@H]5O[C@@H](C)[C@@H](O)[C@@H](O)[C@@H]5O)CCC4=C3[C@H](c3ccc(C4CC4)cc3)C[C@@]21C [Compound 31, (2S,3S,4R,5S,6S)-3,4,5-trihydroxy-6-methyltetrahydro-2H-pyran-2-yl (E)-2-((8S,11S,13S,14S,17S)-11-(4-cyclopropylphenyl)-17-(1,1-difluoroprop-2-yn-1-yl)-17-hydroxy-13-methyl-1,2,6,7,8,11,12,13,14,15,16,17-dodecahydro-3H-cyclopenta[a]phenanthren-3-ylidene)hydrazine-1-carboxylate] | 10 to 100
5 | C#CC(F)(F)[C@]1(O)CC[C@H]2[C@@H]3CCC4=C/C(=N/NC(=O)CO)CCC4=C3[C@H](c3ccc(C4CC4)cc3)C[C@@]21C [Compound 37, N′-((8S,11S,13S,14S,17S,E)-11-(4-cyclopropylphenyl)-17-(1,1-difluoroprop-2-yn-1-yl)-17-hydroxy-13-methyl-1,2,6,7,8,11,12,13,14,15,16,17-dodecahydro-3H-cyclopenta[a]phenanthren-3-ylidene)-2-hydroxyacetohydrazide] | 0.1 to 10
6 | C#CC(F)(F)[C@]1(O)CC[C@H]2[C@@H]3CCC4=CC(=NOCCOCCOCCOCCNC(=O)CCCCC5SCC6NC(=O)NC65)CCC4=C3[C@@H](c3ccc(C4CC4)cc3)C[C@@]21C (stereo partly shown) [compound 21] | 0.1 to 10

Next, values leading:

Row | IC50 [nM] | SMILES
7 | 10 to 100 | C#CC(F)(F)[C@]1(O)CC[C@H]2[C@@H]3CCC4=C/C(=N/N)CCC4=C3[C@H](c3ccc(C4CC4)cc3)C[C@@]21C [Compound 27, (8S,11S,13S,14S,17S,E)-11-(4-cyclopropylphenyl)-17-(1,1-difluoroprop-2-yn-1-yl)-3-hydrazineylidene-13-methyl-2,3,6,7,8,11,12,13,14,15,16,17-dodecahydro-1H-cyclopenta[a]phenanthren-17-ol]
8 | 0.1 to 10 | C#CC(F)(F)[C@]1(O)CC[C@H]2[C@@H]3CCC4=C/C(=N/NC(=O)O[C@@H]5O[C@@H](C)[C@@H](OC(C)=O)[C@@H](OC(C)=O)[C@@H]5OC(C)=O)CCC4=C3[C@H](c3ccc(C4CC4)cc3)C[C@@]21C [Compound 30, (2S,3S,4R,5R,6S)-2-((2-((8S,11S,13S,14S,17S,E)-11-(4-cyclopropylphenyl)-17-(1,1-difluoroprop-2-yn-1-yl)-17-hydroxy-13-methyl-1,2,6,7,8,11,12,13,14,15,16,17-dodecahydro-3H-cyclopenta[a]phenanthren-3-ylidene)hydrazine-1-carbonyl)oxy)-6-methyltetrahydro-2H-pyran-3,4,5-triyl triacetate]
9 | 0.1 to 10 | C#CC(F)(F)[C@]1(O)CC[C@H]2[C@@H]3CCC4=C/C(=N/NC(=O)CN)CCC4=C3[C@H](c3ccc(C4CC4)cc3)C[C@@]21C [Compound 35, 2-amino-N′-((8S,11S,13S,14S,17S,E)-11-(4-cyclopropylphenyl)-17-(1,1-difluoroprop-2-yn-1-yl)-17-hydroxy-13-methyl-1,2,6,7,8,11,12,13,14,15,16,17-dodecahydro-3H-cyclopenta[a]phenanthren-3-ylidene)acetohydrazide]
10 | 0.1 to 10 | C#CC(F)(F)[C@]1(O)CC[C@H]2[C@@H]3CCC4=C/C(=N/NC(=O)COC)CCC4=C3[C@H](c3ccc(C4CC4)cc3)C[C@@]21C [Compound 36, N′-((8S,11S,13S,14S,17S,E)-11-(4-cyclopropylphenyl)-17-(1,1-difluoroprop-2-yn-1-yl)-17-hydroxy-13-methyl-1,2,6,7,8,11,12,13,14,15,16,17-dodecahydro-3H-cyclopenta[a]phenanthren-3-ylidene)-2-methoxyacetohydrazide]
11 | 0.1 to 10 | C#CC(F)(F)[C@]1(O)CC[C@H]2[C@@H]3CCC4=C/C(=N/NC(=O)OCC)CCC4=C3[C@H](c3ccc(C4CC4)cc3)C[C@@]21C [Compound 40, ethyl (E)-2-((8S,11S,13S,14S,17S)-11-(4-cyclopropylphenyl)-17-(1,1-difluoroprop-2-yn-1-yl)-17-hydroxy-13-methyl-1,2,6,7,8,11,12,13,14,15,16,17-dodecahydro-3H-cyclopenta[a]phenanthren-3-ylidene)hydrazine-1-carboxylate]
12 | 0.1 to 10 | C#CC(F)(F)[C@]1(O)CC[C@H]2[C@@H]3CCC4=C/C(=N/NC(N)=O)CCC4=C3[C@H](c3ccc(C4CC4)cc3)C[C@@]21C [Compound 41, (E)-2-((8S,11S,13S,14S,17S)-11-(4-cyclopropylphenyl)-17-(1,1-difluoroprop-2-yn-1-yl)-17-hydroxy-13-methyl-1,2,6,7,8,11,12,13,14,15,16,17-dodecahydro-3H-cyclopenta[a]phenanthren-3-ylidene)hydrazine-1-carboxamide]
13 | 0.1 to 10 | C#CC(F)(F)[C@]1(O)CC[C@H]2[C@@H]3CCC4=C/C(=N/NC(=O)NCC5CC5)CCC4=C3[C@H](c3ccc(C4CC4)cc3)C[C@@]21C [Compound 50, (E)-N-(cyclopropylmethyl)-2-((8S,11S,13S,14S,17S)-11-(4-cyclopropylphenyl)-17-(1,1-difluoroprop-2-yn-1-yl)-17-hydroxy-13-methyl-1,2,6,7,8,11,12,13,14,15,16,17-dodecahydro-3H-cyclopenta[a]phenanthren-3-ylidene)hydrazine-1-carboxamide]
